Here are results for five molecules from paper PMC10623572, “Subtle Structural Modification of a Synthetic Cannabinoid Receptor Agonist Drastically Increases its Efficacy at the CB1 Receptor” (ACS Chemical Neuroscience, 2023).

For assay [1], the target named is T1, CB1R (presynaptic, mouse hippocampus) (Mus musculus, UniProt P47746).
T1 construct: gene Cnr1; native receptor in hippocampal brain slices
Put plainly: fEPSP field recording, inhibition of glutamate release in hippocampal slices. Conditions: agonist; native presynaptic receptor, downstream read-out; 31-32 °C; 50 µM caffeine; reversed by AM251.

In assay [2] the target is T2, CB1R (CB1R-Rluc) (Homo sapiens, UniProt P21554).
T2 construct: gene CNR1; Rluc-fused receptor in HEK-293T cells; with mVenus-Gi1 plus Gbeta1/Ggamma2, or beta-arrestin 2-Venus plus GRK2
Put plainly: BRET CB1R-Rluc/Gi1-Venus engagement. It is filed as cell-based. In general terms: BRET reads energy transfer from a luciferase to a nearby fluorophore.

For assay [3], the target named is T2, CB1R (CB1R-Rluc). Put plainly: BRET CB1R-Rluc/beta-arrestin 2-Venus recruitment. It is filed as cell-based. The text has this: BRET CB1R-Rluc/beta-arrestin 2-Venus recruitment on CB1R (CB1R-Rluc)
Where [4] appears, read: read-out: 5F-SDB-006 (converted).
The mark [5] stands for this setting: read-out: 5F-MMB-PICA (converted).

T2 sequence (P21554 whole entry, the tested form may be a part): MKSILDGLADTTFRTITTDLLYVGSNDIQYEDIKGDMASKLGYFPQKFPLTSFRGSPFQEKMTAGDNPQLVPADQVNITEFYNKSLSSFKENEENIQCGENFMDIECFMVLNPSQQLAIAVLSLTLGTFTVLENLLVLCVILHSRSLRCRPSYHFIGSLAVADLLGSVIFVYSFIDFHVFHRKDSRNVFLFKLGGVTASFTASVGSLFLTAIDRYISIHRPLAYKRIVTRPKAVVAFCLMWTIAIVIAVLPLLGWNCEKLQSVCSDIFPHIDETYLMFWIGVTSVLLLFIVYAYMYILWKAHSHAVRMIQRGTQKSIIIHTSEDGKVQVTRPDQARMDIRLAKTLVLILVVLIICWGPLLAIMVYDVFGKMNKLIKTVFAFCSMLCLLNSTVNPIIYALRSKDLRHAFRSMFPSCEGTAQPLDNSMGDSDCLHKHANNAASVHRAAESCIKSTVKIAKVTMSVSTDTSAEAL
T1 sequence (P47746 whole entry): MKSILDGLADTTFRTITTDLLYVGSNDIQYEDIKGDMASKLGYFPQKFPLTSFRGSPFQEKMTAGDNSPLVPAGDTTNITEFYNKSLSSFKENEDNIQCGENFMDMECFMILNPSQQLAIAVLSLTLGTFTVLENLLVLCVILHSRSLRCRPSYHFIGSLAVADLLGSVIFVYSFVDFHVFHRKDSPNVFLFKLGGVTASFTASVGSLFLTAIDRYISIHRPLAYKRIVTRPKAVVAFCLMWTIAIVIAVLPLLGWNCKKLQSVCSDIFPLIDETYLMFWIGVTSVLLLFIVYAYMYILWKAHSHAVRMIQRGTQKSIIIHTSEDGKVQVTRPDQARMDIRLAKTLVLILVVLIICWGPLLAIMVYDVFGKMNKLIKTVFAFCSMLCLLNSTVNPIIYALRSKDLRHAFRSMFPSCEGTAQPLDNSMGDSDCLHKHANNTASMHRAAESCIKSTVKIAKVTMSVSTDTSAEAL

Turning to `COC(=O)C(NC(=O)c1cn(CCCCCF)c2ccccc12)C(C)(C)C` (stereo not shown) [5F-MDMB-PICA], the pEC50 (usually the EC50 on a negative log10 scale, so that one unit is a factor of ten) in assay [1] was found to be 7.20.

`O=C(NCc1ccccc1)c1cn(CCCCCF)c2ccccc12` [5F-SDB-006]: the EC50 in assay [2] (setting [4]) was 1.48 µM; in assay [3] (setting [4]), 2.45 µM.

With `O=C(c1cccc2ccccc12)c1cn(CCCCCF)c2ccccc12` [AM2201], the values for the EC50 in assay [2] (read-out: AM2201 (converted)) and in assay [3] (read-out: AM2201 (converted)) were 0.339 µM and 0.759 µM, respectively.

Consider `O=C(Nc1cccc2ccccc12)c1cn(CCCCCF)c2ccccc12` [5F-NNEI], for which the EC50 in assay [2] (read-out: 5F-NNEI (converted)) was 4.68 µM; in assay [3] (read-out: 5F-NNEI) it was 5.25 µM.

In the case of `COC(=O)C(NC(=O)c1cn(CCCCCF)c2ccccc12)C(C)C` (stereo not shown) [5F-MMB-PICA], the pEC50 in assay [1] came out at 6.72. The EC50 is 2.95 µM in assay [2] (setting [5]) and 3.63 µM in assay [3] (setting [5]).
